The values below come from US9593107B2, “Dihydroquinoline-2-one derivatives” (Hoffmann-La Roche Inc., priority 2014, dated 2017).

A word on the EC50: it is the concentration needed to bring the measured effect to its halfway point. High values mean weaker potency, low ones greater potency.

In one assay the target is T1, human CYP11B2 (Homo sapiens, UniProt P19099).
T1 construct: expressed in transfected cells
T1 sequence (P19099 25-503): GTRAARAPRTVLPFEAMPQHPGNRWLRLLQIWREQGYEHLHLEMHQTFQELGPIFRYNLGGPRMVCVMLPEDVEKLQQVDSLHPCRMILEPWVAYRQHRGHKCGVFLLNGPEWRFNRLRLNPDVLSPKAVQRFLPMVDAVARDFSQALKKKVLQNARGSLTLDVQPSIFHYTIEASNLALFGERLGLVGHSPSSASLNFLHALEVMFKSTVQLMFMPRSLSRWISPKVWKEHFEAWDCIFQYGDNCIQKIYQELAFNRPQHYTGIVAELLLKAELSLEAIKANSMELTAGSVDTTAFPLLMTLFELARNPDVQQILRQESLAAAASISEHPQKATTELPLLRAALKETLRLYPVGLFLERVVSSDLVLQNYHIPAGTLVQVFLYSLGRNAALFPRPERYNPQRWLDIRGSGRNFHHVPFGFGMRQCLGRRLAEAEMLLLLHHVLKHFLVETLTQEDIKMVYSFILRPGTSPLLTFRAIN
The assay can be described thus: G-402 cellular enzyme assay, human CYP11B2 (aldosterone release, HTRF). The assay is classed as cell-based. Particulars: G-402 cells expressing human CYP11B2; 1 μM Deoxycorticosterone. An excerpt: (§1) Herein we identified the use of the G-402 cell line as a host cell to ectopically express (transiently or stably) enzymes of the CYP11 family. Specifically we developed stable G-402 cells expressing ectopically human CYP11B1, human CYP11B2, human CYP11A1, cynmolgus CYP11B1 or cynomolgus CYP11B2 enzyme activity. Importantly the identified cell line G-402 expresses co-factors (adrenodoxin and adrenodoxin reductase) important for the activity of the CYP11 family and no relevant enzyme activity of the CYP11 family (in comparison to H295R cells) was detected in these cells. Therefore the G-402 cell line is uniquely suited as a host cell for the ectopic expression of enzymes from the CYP11 family.
(§2) The expression plasmids contains the ORF for either human/cyno CYP11B1 or CYP11B2 under the control of a suitable promoter (CMV-promoter) and a suitable resistance marker (neomycin). Using standard techniques the expression plasmid is transfected into G-402 cells and these cells are then selected for expressing the given resistance markers. Individual cell-clones are then selected and assessed for displaying the desired enzymatic activity using 11-Deoxycorticosterone (Cyp11B2) or 11-Deoxycortisol (Cyp11B1) as a substrate.
(§3) G-402 cells expressing CYP11 constructs were established as described above and maintained in McCoy's 5a Medium Modified, ATCC Catalog No. 30-2007 containing 10% FCS and 400 μg/ml G418 (Geneticin) at 37° C. under an atmosphere of 5% CO2/95% air.
(§4) Cellular enzyme assays were performed in DMEM/F12 medium containing 2.5% charcoal treated FCS and appropriate concentration of substrate (0.3-10 uM 11-Deoxycorticosterone, 11-Deoxycortisol or Corticosterone). For assaying enzymatic activity, cells were plated onto 96 well plates and incubated for 16 h. An aliquot of the supernatant is then transferred and analyzed for the concentration of the expected product (Aldosterone for CYP11B2; Cortisol for CYP11B1). The concentrations of these steroids can be determined using HTRF assays from CisBio analyzing either Aldosterone or Cortisol.
(§5) Inhibition of the release of produced steroids can be used as a measure of the respective enzyme inhibition by test compounds added during the cellular enzyme assay. The dose dependent inhibition of enzymatic activity by a compound is calculated by means of plotting added inhibitor concentrations (x-axes) vs. measured steroid/product level (y-axes). The inhibition is then calculated by fitting the following 4-parameter sigmoidal function (Morgan-Mercer-Flodin (MMF) model) to the raw data points using the least squares method:
(§6) [formula] wherein, A is the maximum y value, B is the EC50 factor determined using XLFit, C is the minimum y value and D is the slope value.
(§7) EC50 values for compounds claimed herein were tested with the G402-based assay system described. Cyp11B2 enzyme activity was tested in presence of 1 μM Deoxycorticosterone and variable amounts of inhibitors; Cyp11B1 enzyme activity was tested in presence of 1 μM Deoxycortisol and variable amounts of inhibitors.

In the next assay the target is T2, human CYP11B1 (Homo sapiens, UniProt P15538).
T2 construct: expressed in transfected cells
T2 sequence (P15538 25-503): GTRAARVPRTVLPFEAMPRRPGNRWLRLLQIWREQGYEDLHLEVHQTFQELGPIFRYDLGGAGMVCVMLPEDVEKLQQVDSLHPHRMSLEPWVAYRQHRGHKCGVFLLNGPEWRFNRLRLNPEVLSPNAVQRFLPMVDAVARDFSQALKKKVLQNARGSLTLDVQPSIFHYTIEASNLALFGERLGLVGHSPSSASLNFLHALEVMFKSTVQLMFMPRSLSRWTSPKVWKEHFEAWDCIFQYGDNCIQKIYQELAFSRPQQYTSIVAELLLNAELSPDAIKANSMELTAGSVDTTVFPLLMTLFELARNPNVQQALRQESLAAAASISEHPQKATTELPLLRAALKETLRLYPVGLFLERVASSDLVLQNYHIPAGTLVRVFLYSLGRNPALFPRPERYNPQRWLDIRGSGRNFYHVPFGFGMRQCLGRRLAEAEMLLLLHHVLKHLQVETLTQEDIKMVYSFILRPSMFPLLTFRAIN
The assay can be described thus: G-402 cellular enzyme assay, human CYP11B1 (cortisol release, HTRF). The assay is classed as cell-based. The following applies: G-402 cells expressing human CYP11B1; 1 μM Deoxycortisol.
Source text: as §1, §2, §3, §4, §5, §6, §7
A general note: TR-FRET usually uses a lanthanide donor and a delayed reading to cut background.

The subject of assay [1] is rat model of chronic kidney disease. Particulars: cited from earlier work; for cardiac and aortic medial hypertrophy / renal effects of angiotensin II and high salt (albuminuria, azotemia, renovascular hypertrophy, glomerular injury, PAI-1 and osteopontin mRNA, tubulointerstitial fibrosis): rat, in vivo.
Assay [2] deals with rats with experimental heart failure. The following applies: rat, in vivo; cited from earlier work.
Assay [3] concerns patients with primary aldosteronism. Particulars: oral; cited from earlier work.

With `CN1C(=O)CCc2cc(-c3cncc(Cn4c(Cl)cccc4=O)c3)c(F)cc21` [Example 22, 6-[5-(6-Chloro-2-oxo-2H-pyridin-1-ylmethyl)-pyridin-3-yl]-7-fluoro-1-methyl-3,4-dihydro-1H-quinolin-2-one], the EC50 on human CYP11B2 turned out to be 0.2 nM; at human CYP11B1, 7.1 nM.

On to `Cc1cccc(=O)n1Cc1cncc(-c2cc3c(cc2F)N(C)C(=O)CC3)c1` [Example 23, 7-Fluoro-1-methyl-6-[5-(6-methyl-2-oxo-2H-pyridin-1-ylmethyl)-pyridin-3-yl]-3,4-dihydro-1H-quinolin-2-one], for which the figures for the EC50 on human CYP11B2 and at human CYP11B1 were 12.5 nM and 3130 nM, respectively.

As for `Cc1c(Cn2c(C)cccc2=O)cncc1-c1cc2c(cc1F)N(C)C(=O)CC2` [Example 24, 7-Fluoro-1-methyl-6-[4-methyl-5-(6-methyl-2-oxo-2H-pyridin-1-ylmethyl)-pyridin-3-yl]-3,4-dihydro-1H-quinolin-2-one], the EC50 turned out to be 16.5 nM at human CYP11B2 and 2140 nM at human CYP11B1.

As to `Cc1c(Cn2c(Cl)cccc2=O)cncc1-c1cc2c(cc1F)N(C)C(=O)CC2` [Example 25, 6-[5-(6-Chloro-2-oxo-2H-pyridin-1-ylmethyl)-4-methyl-pyridin-3-yl]-7-fluoro-1-methyl-3,4-dihydro-1H-quinolin-2-one], the EC50 at human CYP11B2 turned out to be 2.1 nM; on human CYP11B1 it was 234 nM.

For `Cc1c(Cn2cccc(F)c2=O)cncc1-c1cc2c(cc1F)N(C)C(=O)CC2` [Example 26, 7-Fluoro-6-[5-(3-fluoro-2-oxo-2H-pyridin-1-ylmethyl)-4-methyl-pyridin-3-yl]-1-methyl-3,4-dihydro-1H-quinolin-2-one], the EC50 at human CYP11B2 worked out at 1 nM; on human CYP11B1, 44.8 nM.

As for `Cc1c(Cn2c(F)cccc2=O)cncc1-c1cc2c(cc1F)N(C)C(=O)CC2` [Example 27, 7-Fluoro-6-[5-(6-fluoro-2-oxo-2H-pyridin-1-ylmethyl)-4-methyl-pyridin-3-yl]-1-methyl-3,4-dihydro-1H-quinolin-2-one], the results for the EC50 on human CYP11B2 and at human CYP11B1 were 1 nM and 91.3 nM, respectively.

In the case of `N#Cc1ccc([C@H]2CCCc3cncn32)cc1` [FAD286], in assay [1] (following 4 weeks of treatment), the plasma aldosterone entry is on record as “reduced”. Besides, in assay [1], the “cardiac and aortic medial hypertrophy” value is given as “attenuated”; the “renal effects of angiotensin II and high salt (albuminuria, azotemia, renovascular hypertrophy, glomerular injury, PAI-1 and osteopontin mRNA, tubulointerstitial fibrosis)” value is “prevented”. In addition, in assay [2], the “blood pressure and cardiovascular function and structure” value is recorded as “improved”; the “kidney function and morphology” value is given as “improve”.

As to `N#Cc1ccc([C@H]2CCc3cncn32)c(F)c1` [LCI699], in assay [3], the blood pressure entry is reported as “mildly decreased”, the circulating aldosterone levels result is on record as “significantly lower”, the hypokalemia entry is “corrected” and the “selectivity (effects on the glucocorticoid axis)” value is “poor selectivity”.

For the molecule `CC(=O)S[C@@H]1CC2=CC(=O)CC[C@]2(C)[C@H]2CC[C@@]3(C)[C@@H](CC[C@@]34CCC(=O)O4)[C@H]12` [spironolactone], the aldosterone entry in assay [1] (at 4 and 8 weeks of treatment) was “increased”. Besides, the “angiotensin II and salt-stimulated PAI-1 mRNA expression” value in assay [1] (in the aorta and the heart) is “enhanced”. In assay [1], the “cardiac and aortic medial hypertrophy” value is on record as “attenuated”; the “renal effects of angiotensin II and high salt (albuminuria, azotemia, renovascular hypertrophy, glomerular injury, PAI-1 and osteopontin mRNA, tubulointerstitial fibrosis)” value is given as “prevented”.
